Measurements published in patent EP0760376A1, “PEPTIDES INHIBITING PHOSPHOLIPASE C” (Kyowa Hakko Kogyo Co., Ltd., priority 1995, dated 1996).
In brackets after ≈: the same amount, converted by molar mass. Square brackets hold non-standard residues; d marks the D form. Peptide text beside a SMILES is read from it. * marks the point of attachment. Stearoyl = CCCCCCCCCCCCCCCCCC(=O)*; 12Ado = NCCCCCCCCCCCC(=O)O; Aoc = NCCCCCCCC(=O)O; Ahp = NCCCCCCC(=O)O; Ahx = NCCCCCC(=O)O; Ava = NCCCCC(=O)O; GABA = NCCCC(=O)O

Columns and labels:
PLC-γ1 = biological target: T1, PLC-γ1 (Bos taurus, UniProt P08487); experiment: PLC-inhibiting activity (release of [3H]inositol phosphate from [3H]PIP2); format: biochemical, bovine; conditions: 37°C, 10 minutes, pH 6.0, read-out: Inhibition rate (%)
T1 construct: A sample of PLC-γ1 was prepared from bovine thymus; from tissue; host or cells: bovine thymus
T1 sequence (P08487 1-1291): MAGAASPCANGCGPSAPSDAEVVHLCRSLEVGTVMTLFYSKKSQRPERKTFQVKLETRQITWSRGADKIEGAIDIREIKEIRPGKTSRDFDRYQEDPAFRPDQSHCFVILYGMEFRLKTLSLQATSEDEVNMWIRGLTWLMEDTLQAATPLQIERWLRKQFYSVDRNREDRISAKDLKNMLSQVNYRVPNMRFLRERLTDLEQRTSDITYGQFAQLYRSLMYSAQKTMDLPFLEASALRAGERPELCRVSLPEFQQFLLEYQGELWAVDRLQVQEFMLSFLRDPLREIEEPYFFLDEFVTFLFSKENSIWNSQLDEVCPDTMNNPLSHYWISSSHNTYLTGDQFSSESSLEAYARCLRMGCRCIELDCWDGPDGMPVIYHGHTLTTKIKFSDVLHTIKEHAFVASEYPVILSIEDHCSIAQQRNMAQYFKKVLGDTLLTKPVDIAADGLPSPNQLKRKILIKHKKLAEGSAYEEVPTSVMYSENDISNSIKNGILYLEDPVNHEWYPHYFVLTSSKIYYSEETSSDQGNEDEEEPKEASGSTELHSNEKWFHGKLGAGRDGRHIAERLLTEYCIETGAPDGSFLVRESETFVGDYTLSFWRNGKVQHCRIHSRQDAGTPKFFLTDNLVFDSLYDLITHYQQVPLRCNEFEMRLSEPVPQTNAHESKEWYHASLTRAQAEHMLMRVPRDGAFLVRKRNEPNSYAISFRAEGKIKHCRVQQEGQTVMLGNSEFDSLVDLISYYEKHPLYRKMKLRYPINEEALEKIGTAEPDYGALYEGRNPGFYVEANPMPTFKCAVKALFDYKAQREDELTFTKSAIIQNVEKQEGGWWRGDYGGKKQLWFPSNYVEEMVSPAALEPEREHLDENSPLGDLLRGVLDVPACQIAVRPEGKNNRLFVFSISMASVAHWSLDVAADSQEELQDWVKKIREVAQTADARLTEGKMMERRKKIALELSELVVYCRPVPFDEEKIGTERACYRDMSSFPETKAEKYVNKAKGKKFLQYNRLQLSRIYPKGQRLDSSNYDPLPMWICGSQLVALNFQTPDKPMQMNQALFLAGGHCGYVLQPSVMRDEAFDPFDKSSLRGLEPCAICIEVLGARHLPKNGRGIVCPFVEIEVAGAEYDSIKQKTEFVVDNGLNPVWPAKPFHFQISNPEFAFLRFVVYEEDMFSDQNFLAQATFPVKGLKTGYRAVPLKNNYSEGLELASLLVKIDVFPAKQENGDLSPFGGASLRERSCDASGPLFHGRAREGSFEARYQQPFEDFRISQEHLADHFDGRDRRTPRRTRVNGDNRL
Method: A sample of PLC-γ1 was prepared from bovine thymus according to the method described in Y. Honma et al., Biochem. J., 269, 13 (1990). A solution having the composition shown in Table 2 below was prepared on ice and was heated to 37°C to start reaction. After incubation for 10 minutes, 2 ml of a chloroform/methanol mixture (2:1, v/v) was added thereto to stop the reaction. The resulting inositol phosphate was extracted with 0.5 ml of 1 N hydrochloric acid. The extract was separated into two liquid phases by centrifugation (2000 x g, 3 minutes), and the amount of ^3H contained in the supernatant (0.7 ml) was measured with a scintillation counter. Table 2 [table] The inhibition rate (X) was calculated according to the following equation: X (%) = (A-C) / (B-C) x 100 [formula] where A is the obtained value of specific radioactivity, B is the value of specific radioactivity obtained when the same amount of water was added instead of the aqueous solution of the test peptide, and C is the value of specific radioactivity obtained when the same amount of water was added instead of the sample and the aqueous solution of the test peptide.

[1] = tested on: Pseudomonas aeruginosa Bin H No. 1; format: cell-based; conditions: Bin H No. 1, pH 7
Method: (§1) The antibacterial activity was determined by the agar dilution method using a medium (pH 7.0) which comprises 3 g/l Bacto-tryptone (Difco Laboratories), 1 g/l meat extract, 1 g/l glucose and 16 g/l agar.

KMS-4 cells = experiment: Cell growth-inhibiting activity (BrdU incorporation, cell growth detection kit); format: cell-based; conditions: culturing with peptide for 17 hours
Method: The cell growth-inhibiting activity was determined using a cell growth detection kit (Amersham) in the following manner. KMS-4 cells [M. Nanba et al, International Journal of Cancer, 32, 697 (1983)] were suspended in DMEM medium (Nissui Pharmaceutical Co., Ltd.) containing 10% fetal calf serum at a density of 1-2 x 10^4 cells/ml, and 1 ml of the cell suspension was put into each well of a 24-well plate (Corning Inc.). The cells were cultured in a CO2 incubator (37°C, 5% CO2) for 2 days. Then, the medium was replaced with a fresh DMEM medium containing 10% fetal calf serum, and the test peptide was added thereto, followed by culturing for 17 hours. The medium was replaced with a serum-free DMEM medium, and 0.5 ml of a solution prepared by diluting labeled reagent 5-bromo-2'-deoxyuridine (BrdU) and 5-fluoro-2'-deoxyuridine (FdU) (10:1) 1000-fold with the same medium was added to each well, followed by culturing for 2 hours. Then the medium was removed, and the cells were immobilized with an acetic acid/ethanol solution. The immobilized cells were stained according to the method for the cell growth detection kit of Amersham, and then further stained with a 1% Giemsa solution (Merck & Co., Inc.). The number of cells which incorporated BrdU and the total number of cells within one field of vision of a microscope (approximately 200 cells) were determined, and the proportion (%) of stained cells per field of vision was calculated. The above procedure was repeated 10 times, and the average value thereof was defined as the cell growth activity (%). The cell growth-inhibiting activity was calculated in the following manner. That is, the cell growth inhibition rate was calculated according to the following equation: X (%) = (1-B/A) x 100 [formula] where A is the growth activity when no peptide was added, and B is the growth activity when the test peptide was added.

[2] = tested on: Bacillus subtilis No. 10707; format: cell-based; conditions: No. 10707, pH 7
Method: as §1

[3] = tested on: Proteus vulgaris ATCC 6897; format: cell-based; conditions: ATCC 6897, pH 7
Method: as §1

Structure (SMILES)	MIC (µg/ml) PA [1] [µg/mL]	Inhibition rate (%) (KMS-4 cells; Concentration 1 µM)	MIC (µg/ml) BS [2] [µg/mL]	MIC (µg/ml) PV [3] [µg/mL]	also measured
CSCC[C@H](NC(=O)[C@H](CCCCN)NC(=O)[C@H](CCCNC(=N)N)NC(=O)[C@H](Cc1ccc(O)cc1)NC(=O)[C@H](CC(C)C)NC(C)=O)C(=O)N[C@@H](CCCNC(=N)N)C(=O)N[C@@H](CC(C)C)C(=O)N[C@@H](CCCNC(=N)N)C(=O)N[C@@H](Cc1ccc(O)cc1)C(=O)N1CCC[C@H]1C(=O)N[C@H](C(=O)NCCCCCCCCCCCC(N)=O)C(C)C [Compound (I-7), CH3CO-Leu-Tyr-Arg-Lys-Met-Arg-Leu-Arg-Tyr-Pro-Val-NH-(CH2)11CONH2] (Ac-LYRKMRLRYPV[12Ado]-NH2)	150 (≈ 86.5 µM)	39			inhibition at 114 µM (PLC-γ1; Concentration 114 µM (aqueous solution of test peptide provided for the test)): 82%
CSCC[C@H](NC(=O)[C@H](CCCCN)NC(=O)[C@H](CCCNC(=N)N)NC(=O)[C@H](Cc1ccc(O)cc1)NC(=O)[C@H](CC(C)C)NC(C)=O)C(=O)N[C@@H](CCCNC(=N)N)C(=O)N[C@@H](CC(C)C)C(=O)N[C@@H](CCCNC(=N)N)C(=O)N[C@@H](Cc1ccc(O)cc1)C(=O)N1CCC[C@H]1C(=O)N[C@H](C(=O)NCCCCCC(N)=O)C(C)C [Compound (I-3), CH3CO-Leu-Tyr-Arg-Lys-Met-Arg-Leu-Arg-Tyr-Pro-Val-NH-(CH2)5CONH2] (Ac-LYRKMRLRYPV[Ahx]-NH2)	175 (≈ 106 µM)		88 (≈ 53.4 µM)	175 (≈ 106 µM)	inhibition at 121 µM (PLC-γ1; Concentration 121 µM (aqueous solution of test peptide provided for the test)): 77%; Inhibition rate (%) (KMS-4 cells; Concentration 6 µM): 53%
CSCC[C@H](NC(=O)[C@H](CCCCN)NC(=O)[C@H](CCCNC(=N)N)NC(=O)[C@H](Cc1ccc(O)cc1)NC(=O)[C@H](CC(C)C)NC(C)=O)C(=O)N[C@@H](CCCNC(=N)N)C(=O)N[C@@H](CC(C)C)C(=O)N[C@@H](CCCNC(=N)N)C(=O)N[C@@H](Cc1ccc(O)cc1)C(=O)N1CCC[C@H]1C(=O)N[C@H](C(=O)NCCCC(N)=O)C(C)C [Compound (I-1), CH3CO-Leu-Tyr-Arg-Lys-Met-Arg-Leu-Arg-Tyr-Pro-Val-NH-(CH2)3CONH2] (Ac-LYRKMRLRYPV[GABA]-NH2)	167 (≈ 103 µM)	10	167 (≈ 103 µM)	83 (≈ 51.2 µM)	inhibition at 123 µM (PLC-γ1; Concentration 123 µM (aqueous solution of test peptide provided for the test)): 85%
CSCC[C@H](NC(=O)[C@H](CCCCN)NC(=O)[C@H](CCCNC(=N)N)NC(=O)[C@H](Cc1ccc(O)cc1)NC(=O)[C@H](CC(C)C)NC(C)=O)C(=O)N[C@@H](CCCNC(=N)N)C(=O)N[C@@H](CC(C)C)C(=O)N[C@@H](CCCNC(=N)N)C(=O)N[C@@H](Cc1ccc(O)cc1)C(=O)N1CCC[C@H]1C(=O)N[C@H](C(=O)NCCCCCCC(N)=O)C(C)C [Compound (I-4), CH3CO-Leu-Tyr-Arg-Lys-Met-Arg-Leu-Arg-Tyr-Pro-Val-NH-(CH2)6CONH2] (Ac-LYRKMRLRYPV[Ahp]-NH2)	129 (≈ 77.6 µM)		129 (≈ 77.6 µM)	129 (≈ 77.6 µM)	inhibition at 120 µM (PLC-γ1; Concentration 120 µM (aqueous solution of test peptide provided for the test)): 89%; Inhibition rate (%) (KMS-4 cells; Concentration 25 µM): 47%
CSCC[C@H](NC(=O)[C@H](CCCCN)NC(=O)[C@H](CCCNC(=N)N)NC(=O)[C@H](Cc1ccc(O)cc1)NC(=O)[C@H](CC(C)C)NC(C)=O)C(=O)N[C@@H](CCCNC(=N)N)C(=O)N[C@@H](CC(C)C)C(=O)N[C@@H](CCCNC(=N)N)C(=O)N[C@@H](Cc1ccc(O)cc1)C(=O)N1CCC[C@H]1C(=O)N[C@H](C(=O)NCCCCCCCC(N)=O)C(C)C [Compound (I-5), CH3CO-Leu-Tyr-Arg-Lys-Met-Arg-Leu-Arg-Tyr-Pro-Val-NH-(CH2)7CONH2] (Ac-LYRKMRLRYPV[Aoc]-NH2)	163 (≈ 97.2 µM)	70	81 (≈ 48.3 µM)		inhibition at 119 µM (PLC-γ1; Concentration 119 µM (aqueous solution of test peptide provided for the test)): 83%
CSCC[C@H](NC(=O)[C@H](CCCCN)NC(=O)[C@H](CCCNC(=N)N)NC(=O)[C@H](Cc1ccc(O)cc1)NC(=O)[C@H](CC(C)C)NC(C)=O)C(=O)N[C@@H](CCCNC(=N)N)C(=O)N[C@@H](CC(C)C)C(=O)N[C@@H](CCCNC(=N)N)C(=O)N[C@@H](Cc1ccc(O)cc1)C(=O)N1CCC[C@H]1C(=O)N[C@H](C(=O)NCCCCC(N)=O)C(C)C [Compound (I-2), CH3CO-Leu-Tyr-Arg-Lys-Met-Arg-Leu-Arg-Tyr-Pro-Val-NH-(CH2)4CONH2] (Ac-LYRKMRLRYPV[Ava]-NH2)	77 (≈ 47.1 µM)	68	77 (≈ 47.1 µM)	77 (≈ 47.1 µM)	inhibition at 122 µM (PLC-γ1; Concentration 122 µM (aqueous solution of test peptide provided for the test)): 75%
CCCCCCCCCCCCCCCCCC(=O)N[C@@H](CC(C)C)C(=O)N[C@@H](Cc1ccc(O)cc1)C(=O)N[C@@H](CCCNC(=N)N)C(=O)N[C@@H](CCCCN)C(=O)N[C@@H](CCSC)C(=O)N[C@@H](CCCNC(=N)N)C(=O)N[C@@H](CC(C)C)C(=O)N[C@@H](CCCNC(=N)N)C(=O)N[C@@H](Cc1ccc(O)cc1)C(=O)N1CCC[C@H]1C(=O)N[C@H](C(=O)NCCCCCCCCCCCC(N)=O)C(C)C [Compound (I-8), C17H35CO-Leu-Tyr-Arg-Lys-Met-Arg-Leu-Arg-Tyr-Pro-Val-NH-(CH2)11CONH2] (Stearoyl-LYRKMRLRYPV[12Ado]-NH2)	106 (≈ 54.1 µM)				inhibition at 20 µM (PLC-γ1; Concentration 20 µM (aqueous solution of test peptide provided for the test)): 76%
